The values that follow are results of earlier work, collected in patent US20240401031A1, “Platform Using iPSC-Derived Cardiomyocytes Carrying Gene Variants as Models of Cardiac Disease and Drug-Response” (SRI INTERNATIONAL, priority 2021, published 2024).

The structures appear in SMILES notation.

For the data set the following is noted: source CredibleMeds.
On to `Cc1c(OCC(F)(F)F)ccnc1C[S+]([O-])c1nc2ccccc2[nH]1` (stereo not shown) [Lansoprazole], for which the “Risk (Torsade de Pointes)” value is “(CR)”. Turning to `CS(=O)(=O)CCNCc1ccc(-c2ccc3ncnc(Nc4ccc(OCc5cccc(F)c5)c(Cl)c4)c3c2)o1` [Lapatinib], the “Risk (Torsade de Pointes)” value was “(PR)”. Take `C=C[C@]1(C)C[C@@H](OC(=O)CS[C@@H]2CC[C@@H](N)C[C@H]2O)[C@]2(C)[C@H](C)CC[C@]3(CCC(=O)[C@H]32)[C@@H](C)[C@@H]1O` [Lefamulin]: the “Risk (Torsade de Pointes)” value was “(PR)”.

Take `CC[C@@H](C(N)=O)N1CCCC1=O` [Levetiracetam]: the “Risk (Torsade de Pointes)” value is “(PR)”.

Take `COc1ccc2c(c1)N(C[C@H](C)CN(C)C)c1ccccc1S2` [Levomepromazine]: the “Risk (Torsade de Pointes)” value is listed as “(KR)”. In the case of `CCC(=O)C(C[C@@H](C)N(C)C)(c1ccccc1)c1ccccc1` [Levomethadone], the “Risk (Torsade de Pointes)” value is “(PR)”.

For `CC[C@H](O)C(C[C@H](C)N(C)C)(c1ccccc1)c1ccccc1` [Levomethadyl], the “Risk (Torsade de Pointes)” value was “(KR)”. Take `CN[C@H](C)Cc1ccccc1` [Levomethamphetamine]: the “Risk (Torsade de Pointes)” value is given as “(SR)”. `CCN1CCC[C@H]1CNC(=O)c1cc(S(N)(=O)=O)ccc1OC` [Levosulpiride]: the “Risk (Torsade de Pointes)” value is listed as “(KR)”. Take `CC(=O)NC[C@H]1CN(c2ccc(N3CCOCC3)c(F)c2)C(=O)O1` [Linezolid]: the “Risk (Torsade de Pointes)” value is listed as “(PR)”. In the case of `C[C@@H](Cc1ccccc1)NC(=O)[C@@H](N)CCCCN` [Lisdexamfetamine], the “Risk (Torsade de Pointes)” value is on record as “(SR)”. For `[Li]` [Lithium], the “Risk (Torsade de Pointes)” value is listed as “(PR)”. Take `CC(Oc1c(Cl)cccc1Cl)C1=NCCN1` (stereo not shown) [Lofexidine]: the “Risk (Torsade de Pointes)” value is “(PR)”. For the compound `O=C1[C@@H]2[C@H]3CC[C@H](C3)[C@@H]2C(=O)N1C[C@@H]1CCCC[C@H]1CN1CCN(c2nsc3ccccc23)CC1` [Lurasidone], the “Risk (Torsade de Pointes)” value was “(PR)”. In the case of `CNCCCC12CCC(c3ccccc31)c1ccccc12` [Maprotiline], the “Risk (Torsade de Pointes)” value is listed as “(PR)”. Turning to `CN1CCCCC1CCN1c2ccccc2Sc2ccc([S+](C)[O-])cc21` (stereo not shown) [Mesoridazine], the “Risk (Torsade de Pointes)” value is “(KR)”. On to `CCC(=O)C(CC(C)N(C)C)(c1ccccc1)c1ccccc1` (stereo not shown) [Methadone], for which the “Risk (Torsade de Pointes)” value was “(KR)”. Take `CN[C@@H](C)Cc1ccccc1` [Methamphetamine]: the “Risk (Torsade de Pointes)” value is on record as “(SR)”. For the compound `CCN(CC)CCNC(=O)c1cc(Cl)c(N)cc1OC` [Metoclopramide], the “Risk (Torsade de Pointes)” value is on record as “(CR)”. In the case of `Cc1ccccc1N1C(=O)c2cc(S(N)(=O)=O)c(Cl)cc2NC1C` (stereo not shown) [Metolazone], the “Risk (Torsade de Pointes)” value is reported as “(CR)”.

As to `CN1CCN2c3ccccc3Cc3ccccc3C2C1` (stereo not shown) [Mianserin], the “Risk (Torsade de Pointes)” value is given as “(PR)”. Turning to `COc1ccc(OC)c(C(O)CNC(=O)CN)c1` (stereo not shown) [Midodrine], the “Risk (Torsade de Pointes)” value is recorded as “(SR)”. For the compound `CO[C@@H]1[C@H](N(C)C(=O)c2ccccc2)C[C@H]2O[C@]1(C)n1c3ccccc3c3c4c(c5c6ccccc6n2c5c31)C(=O)NC4` [Midostaurin], the “Risk (Torsade de Pointes)” value was “(PR)”. Regarding `Nc1nc(CC(=O)Nc2ccc(CCNC[C@H](O)c3ccccc3)cc2)cs1` [Mirabegron], the “Risk (Torsade de Pointes)” value is on record as “(PR)”.

Regarding `Cc1c(O)cccc1C(=O)N[C@@H](CSc1ccccc1)[C@H](O)CN1C[C@H]2CCCC[C@H]2C[C@H]1C(=O)NC(C)(C)C` [Nelfinavir], the “Risk (Torsade de Pointes)” value is listed as “(CR)”. Regarding `CCn1cc(C(=O)O)c(=O)c2cc(F)c(N3CCNCC3)cc21` [Norfloxacin], the “Risk (Torsade de Pointes)” value is “(PR)”. Consider `CNCCC=C1c2ccccc2CCc2ccccc21` [Nortriptyline], for which the “Risk (Torsade de Pointes)” value is listed as “(PR)”. For the compound `COc1ccsc1CNCC[C@@]1(c2ccccn2)CCOC2(CCCC2)C1` [Oliceridine], the “Risk (Torsade de Pointes)” value is “(PR)”. `COc1ccc(CC(C)(C)NC[C@H](O)c2cc(O)cc3c2OCC(=O)N3)cc1` [Olodaterol]: the “Risk (Torsade de Pointes)” value was “(SR)”. With `COc1ccc2[nH]c([S+]([O-])Cc3ncc(C)c(OC)c3C)nc2c1` (stereo not shown) [Omeprazole], the “Risk (Torsade de Pointes)” value is “(CR)”. In the case of `Cc1nccn1CC1CCc2c(c3ccccc3n2C)C1=O` (stereo not shown) [Ondansetron], the “Risk (Torsade de Pointes)” value is “(KR)”. `O=C1[O][Pt]2([NH][C@@H]3CCCC[C@H]3[NH]2)[O]C1=O` [Oxaliplatin]: the “Risk (Torsade de Pointes)” value is reported as “(KR)”. On to `Cc1cc(C(C)(C)C)c(O)c(C)c1CC1=NCCN1` [Oxymetazoline], for which the “Risk (Torsade de Pointes)” value was “(SR)”. On to `CC(C)Oc1ccc(-c2nc(-c3cccc4c3CC[C@@H]4NCCO)no2)cc1C#N` [Ozanimod], for which the “Risk (Torsade de Pointes)” value is “(PR)”.

As to `Cc1nc2n(c(=O)c1CCN1CCC(c3noc4cc(F)ccc34)CC1)CCCC2O` (stereo not shown) [Paliperidone], the “Risk (Torsade de Pointes)” value is “(PR)”.

`O=C1c2cccc3c2[C@H](CCC3)CN1[C@@H]1CN2CCC1CC2` [Palonosetron]: the “Risk (Torsade de Pointes)” value is “(PR)”. In the case of `Cc1[nH]c2ccccc2c1CCNCc1ccc(/C=C/C(=O)NO)cc1` [Panobinostat], the “Risk (Torsade de Pointes)” value was “(PR)”. For the compound `COc1ccnc(C[S+]([O-])c2nc3ccc(OC(F)F)cc3[nH]2)c1OC` (stereo not shown) [Pantoprazole], the “Risk (Torsade de Pointes)” value is “(CR)”.

On to `COc1ccc(Cc2nccc3cc(OC)c(OC)cc23)cc1OC` [Papaverine], for which the “Risk (Torsade de Pointes)” value is reported as “(KR)”.

Take `Fc1ccc([C@@H]2CCNC[C@H]2COc2ccc3c(c2)OCO3)cc1` [Paroxetine]: the “Risk (Torsade de Pointes)” value is reported as “(CR)”. Turning to `Cc1ccc(Nc2nccc(N(C)c3ccc4c(C)n(C)nc4c3)n2)cc1S(N)(=O)=O` [Pazopanib], the “Risk (Torsade de Pointes)” value was “(PR)”. Regarding `N=C(N)c1ccc(OCCCCCOc2ccc(C(=N)N)cc2)cc1` [Pentamidine], the “Risk (Torsade de Pointes)” value was “(KR)”. In the case of `FC(F)(F)C(F)(F)C(F)(F)F` [Perflutren], the “Risk (Torsade de Pointes)” value is recorded as “(PR)”. For `CC(C)(N)Cc1ccccc1` [Phentermine], the “Risk (Torsade de Pointes)” value is recorded as “(SR)”.

On to `CNC[C@H](O)c1cccc(O)c1` [Phenylephrine], for which the “Risk (Torsade de Pointes)” value is on record as “(SR)”.

As to `CC(N)C(O)c1ccccc1` (stereo not shown) [Phenylpropanolamine], the “Risk (Torsade de Pointes)” value is listed as “(SR)”.

With `Cc1cccc(C)c1NC(=O)CC12CCCN1CCC2` [Pilsicainide], the “Risk (Torsade de Pointes)” value was “(PR)”.

Consider `CC(C)COc1ccc(CNC(=O)N(Cc2ccc(F)cc2)C2CCN(C)CC2)cc1` [Pimavanserin], for which the “Risk (Torsade de Pointes)” value is “(PR)”. Turning to `O=c1[nH]c2ccccc2n1C1CCN(CCCC(c2ccc(F)cc2)c2ccc(F)cc2)CC1` [Pimozide], the “Risk (Torsade de Pointes)” value was “(KR)”. As for `NC(=O)C1(N2CCCCC2)CCN(CCCC(=O)c2ccc(F)cc2)CC1` [Pipamperone], the “Risk (Torsade de Pointes)” value is reported as “(PR)”.

As to `Clc1ccc(CCCOCCCN2CCCCC2)cc1` [Pitolisant], the “Risk (Torsade de Pointes)” value is reported as “(PR)”.

As to `CCC/N=C1\S/C(=C\c2ccc(OC[C@H](O)CO)c(Cl)c2)C(=O)N1c1ccccc1C` [Ponesimod], the “Risk (Torsade de Pointes)” value is reported as “(PR)”. Take `CC[C@@H]([C@H](C)O)n1ncn(-c2ccc(N3CCN(c4ccc(OC[C@@H]5CO[C@@](Cn6cncn6)(c6ccc(F)cc6F)C5)cc4)CC3)cc2)c1=O` [Posaconazole]: the “Risk (Torsade de Pointes)” value is on record as “(CR)”. Consider `O=[N+]([O-])c1cn2c(n1)OC[C@@H](OCc1ccc(OC(F)(F)F)cc1)C2` [Pretomanid], for which the “Risk (Torsade de Pointes)” value is “(PR)”. With `COc1cc(NC(C)CCCN)c2ncccc2c1` (stereo not shown) [Primaquine], the “Risk (Torsade de Pointes)” value is on record as “(PR)”.

For the compound `CC(CN1c2ccccc2Sc2ccccc21)N(C)C` (stereo not shown) [Promethazine], the “Risk (Torsade de Pointes)” value is “(PR)”.

As to `CN(C)CCCN1c2ccccc2Sc2cccnc21` [Prothipendyl], the “Risk (Torsade de Pointes)” value was “(PR)”.

`OCCOCCN1CCN(C2=Nc3ccccc3Sc3ccccc32)CC1` [Quetiapine]: the “Risk (Torsade de Pointes)” value is given as “(CR)”. For the compound `C=C[C@H]1C[N@@]2CC[C@H]1C[C@@H]2[C@@H](O)c1ccnc2ccc(OC)cc12` [Quinidine], the “Risk (Torsade de Pointes)” value was “(KR)”. On to `C=C[C@H]1C[N@@]2CC[C@H]1C[C@H]2[C@H](O)c1ccnc2ccc(OC)cc12` [Quinine], for which the “Risk (Torsade de Pointes)” value is recorded as “(CR)”. Regarding `COc1ccccc1OCC(O)CN1CCN(CC(=O)Nc2c(C)cccc2C)CC1` (stereo not shown) [Ranolazine], the “Risk (Torsade de Pointes)” value is “(CR)”. `CONC(=O)Nc1ccc(-c2sc3c(c2CN(C)C)c(=O)n(-c2ccc(OC)nn2)c(=O)n3Cc2c(F)cccc2F)cc1` [Relugolix]: the “Risk (Torsade de Pointes)” value is “(PR)”. Consider `COC(=O)CC[C@@H]1N=C(c2ccccn2)c2cc(Br)ccc2-n2c(C)cnc21` [Remimazolam], for which the “Risk (Torsade de Pointes)” value is reported as “(PR)”. Consider `CN(C)C(=O)c1cc2cnc(Nc3ccc(N4CCNCC4)cn3)nc2n1C1CCCC1` [Ribociclib], for which the “Risk (Torsade de Pointes)” value is “(PR)”.

In the case of `Cc1cc(/C=C/C#N)cc(C)c1Nc1ccnc(Nc2ccc(C#N)cc2)n1` [Rilpivirine], the “Risk (Torsade de Pointes)” value is listed as “(PR)”. Consider `CC(NCCc1ccc(O)cc1)C(O)c1ccc(O)cc1` (stereo not shown) [Ritodrine], for which the “Risk (Torsade de Pointes)” value was “(SR)”. `CC[C@H]1OC(=O)[C@H](C)[C@@H](O[C@H]2C[C@@](C)(OC)[C@@H](O)[C@H](C)O2)[C@H](C)[C@@H](O[C@@H]2O[C@H](C)C[C@H](N(C)C)[C@H]2O)[C@](C)(O)C[C@@H](C)/C(=N\OCOCCOC)[C@H](C)[C@@H](O)[C@]1(C)O` [Roxithromycin]: the “Risk (Torsade de Pointes)” value is recorded as “(KR)”. Consider `CNCc1ccc(-c2[nH]c3cc(F)cc4c3c2CCNC4=O)cc1` [Rucaparib], for which the “Risk (Torsade de Pointes)” value is “(PR)”. On to `OCc1cc(C(O)CNCCCCCCOCCCCc2ccccc2)ccc1O` (stereo not shown) [Salmeterol], for which the “Risk (Torsade de Pointes)” value was “(SR)”. For `COc1ccc(CN2C3CC2CN(c2ccc(-c4cc(OCC(C)(C)O)cn5ncc(C#N)c45)cn2)C3)cn1` [Selpercatinib], the “Risk (Torsade de Pointes)” value is “(PR)”. `O=C1NCCN1CCN1CCC(c2cn(-c3ccc(F)cc3)c3ccc(Cl)cc23)CC1` [Sertindole]: the “Risk (Torsade de Pointes)” value is “(KR)”.

Take `CN[C@H]1CC[C@@H](c2ccc(Cl)c(Cl)c2)c2ccccc21` [Sertraline]: the “Risk (Torsade de Pointes)” value is on record as “(CR)”. As to `FCOC(C(F)(F)F)C(F)(F)F` [Sevoflurane], the “Risk (Torsade de Pointes)” value is recorded as “(KR)”.
